Data from ChEMBL document CHEMBL1250431, “Morphinans and isoquinolines: acetylcholinesterase inhibition, pharmacophore modeling, and interaction with opioid receptors” (Bioorg Med Chem, 2010).

Key:
Acetylcholinesterase = Acetylcholinesterase (Electrophorus electricus, UniProt O42275); assay: Inhibition of electric eel AChE by Ellman's method
Mu-type opioid receptor = Mu-type opioid receptor (Rattus norvegicus, UniProt P33535); assay: Displacement of [3H]DAMGO from mu opioid receptor in rat brain membrane; format: cell membranes
Chain of Mu-type opioid receptor (P33535 whole entry): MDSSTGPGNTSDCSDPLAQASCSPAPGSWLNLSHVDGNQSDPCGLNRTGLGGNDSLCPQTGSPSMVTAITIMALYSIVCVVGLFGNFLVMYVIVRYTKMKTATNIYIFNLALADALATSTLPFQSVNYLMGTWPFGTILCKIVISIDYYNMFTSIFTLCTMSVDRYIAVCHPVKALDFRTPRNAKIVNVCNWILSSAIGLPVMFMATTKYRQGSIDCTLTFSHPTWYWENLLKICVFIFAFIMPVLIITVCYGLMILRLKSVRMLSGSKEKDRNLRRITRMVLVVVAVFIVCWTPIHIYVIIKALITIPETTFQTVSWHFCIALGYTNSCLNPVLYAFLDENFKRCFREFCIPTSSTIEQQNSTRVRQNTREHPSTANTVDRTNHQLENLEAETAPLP

[1] = molecular target: Delta-type opioid receptor (Rattus norvegicus, UniProt P33533); assay: Displacement of [3H][Ile5,6]deltorphin2 from delta opioid receptor in rat brain membrane; format: cell membranes
Chain of Delta-type opioid receptor (P33533 whole entry): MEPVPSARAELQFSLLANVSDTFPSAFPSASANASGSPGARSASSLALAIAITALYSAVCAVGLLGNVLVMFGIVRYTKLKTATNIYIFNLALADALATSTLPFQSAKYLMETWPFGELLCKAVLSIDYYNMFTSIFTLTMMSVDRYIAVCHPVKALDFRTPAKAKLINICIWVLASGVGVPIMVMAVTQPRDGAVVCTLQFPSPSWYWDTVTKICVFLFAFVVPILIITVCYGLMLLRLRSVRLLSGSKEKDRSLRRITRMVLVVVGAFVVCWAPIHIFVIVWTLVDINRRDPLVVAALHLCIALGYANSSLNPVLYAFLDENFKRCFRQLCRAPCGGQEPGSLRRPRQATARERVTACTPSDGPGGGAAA

[2] = molecular target: Kappa-type opioid receptor (Cavia porcellus, UniProt P41144); assay: Displacement of [3H]U69593 from kappa opioid receptor in guinea pig brain membrane; format: cell membranes
Chain of Kappa-type opioid receptor (P41144 whole entry): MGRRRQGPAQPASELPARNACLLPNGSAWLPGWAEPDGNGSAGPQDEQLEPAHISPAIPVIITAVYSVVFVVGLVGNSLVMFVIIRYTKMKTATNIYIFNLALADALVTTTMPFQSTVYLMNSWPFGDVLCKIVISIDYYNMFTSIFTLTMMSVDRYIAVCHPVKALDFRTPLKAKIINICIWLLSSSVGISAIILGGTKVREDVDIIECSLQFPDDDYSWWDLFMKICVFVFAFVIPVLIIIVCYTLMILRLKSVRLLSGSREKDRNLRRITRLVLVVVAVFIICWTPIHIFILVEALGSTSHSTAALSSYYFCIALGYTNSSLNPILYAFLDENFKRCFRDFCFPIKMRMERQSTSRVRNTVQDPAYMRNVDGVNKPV

Chain of Acetylcholinesterase (O42275 whole entry): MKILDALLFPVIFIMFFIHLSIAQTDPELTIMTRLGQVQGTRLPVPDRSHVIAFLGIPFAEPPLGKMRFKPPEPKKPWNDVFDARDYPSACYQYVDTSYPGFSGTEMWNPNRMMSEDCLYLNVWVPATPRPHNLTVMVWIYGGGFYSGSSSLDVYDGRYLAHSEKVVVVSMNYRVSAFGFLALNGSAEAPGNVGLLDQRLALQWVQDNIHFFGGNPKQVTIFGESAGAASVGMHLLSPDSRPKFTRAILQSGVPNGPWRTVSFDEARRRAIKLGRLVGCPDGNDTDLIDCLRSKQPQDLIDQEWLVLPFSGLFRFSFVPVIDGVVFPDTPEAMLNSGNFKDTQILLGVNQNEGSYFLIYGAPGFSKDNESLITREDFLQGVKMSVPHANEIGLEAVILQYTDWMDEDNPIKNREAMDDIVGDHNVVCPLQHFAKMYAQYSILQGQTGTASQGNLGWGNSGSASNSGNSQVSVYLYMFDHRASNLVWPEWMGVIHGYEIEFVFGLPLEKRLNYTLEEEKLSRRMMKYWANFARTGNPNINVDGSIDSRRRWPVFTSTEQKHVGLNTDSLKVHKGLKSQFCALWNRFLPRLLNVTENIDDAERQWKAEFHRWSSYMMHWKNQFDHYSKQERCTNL

| Structure (SMILES) | IC50 (Acetylcholinesterase) [nM] | Ki (Mu-type opioid receptor) [nM] | Ki [1] [nM] | Ki [2] [nM] | Ki (Acetylcholinesterase) [nM] |
| --- | --- | --- | --- | --- | --- |
| CO[C@@]12CCC(=O)[C@@H]3Oc4cccc5c4[C@@]31CCN(C)[C@@H]2C5 | 140000 |  |  |  |  |
| C=CCN1CC[C@]23CC(=O)CC[C@@]2(OC)[C@H]1Cc1cccc(OC)c13 |  | 2 | 210 | 567 |  |
| C=CCN1CC[C@]23CC(=O)CC[C@H]2[C@H]1Cc1cccc(OC(C)=O)c13 | 193000 |  |  |  |  |
| CCCCCCOc1cccc2c1[C@]13CCN(CC4CC4)[C@H](C2)[C@]1(OC)C=CC(=O)C3 | 405000 |  |  |  |  |
| C=CCN1CC[C@@]23CCCC[C@@H]2[C@@H]1Cc1ccc(O)cc13 [DEXTALLORPHAN] |  |  |  |  | 20000 |
| C=CCN1CC[C@]23CC(=O)CC[C@H]2[C@H]1Cc1cccc(OC)c13 |  | 6.55 | 217 | 113 |  |
| COc1ccc2c3c1O[C@H]1C(=O)CC[C@@]4(O)[C@@H](C2)N(C)CC[C@]314 [OXYCODONE] | 76200 |  |  |  |  |
| CN1CC[C@]23c4c5cccc4O[C@H]2C(=O)CC[C@@]3(O)[C@H]1C5 | 65300 |  |  |  |  |
| O=CN1CC[C@]23CC(=O)CC[C@H]2[C@H]1CC1C(=O)C=CC(=O)C13 (stereo partly specified) | 12700 | 0.46 | 12.2 | 43.2 |  |
| CCO[C@@]12CCC(=O)C[C@@]13CCN(C)[C@@H]2Cc1cccc(O)c13 | 37100 | 20.2 | 316 | 33.1 |  |
| O=CN1CC[C@]23CC(=O)CC[C@H]2[C@H]1Cc1c(O)ccc(O)c13 |  | 67.2 | 1250 | 328 |  |
| CN1CC[C@]23CCCC[C@H]2[C@H]1Cc1ccc(O)cc13 [LEVORPHANOL] |  |  |  |  | 25000 |
| COc1cccc2c1[C@]13CCN(C)[C@H](C2)[C@]1(OC)CCC(=O)C3 | 46200 | 1.15 | 101 | 403 |  |
| O=CN1CC[C@]23c4c5cccc4O[C@H]2C(=O)CC[C@H]3[C@H]1C5 | 60300 | > 10000 | > 10000 | > 10000 |  |
| COC1=CCC2=C(CCNC2Cc2ccccc2O)C1 (stereo unspecified) | 138000 | > 10000 | > 10000 | > 10000 |  |
| COc1cccc(CC2=NCCc3cc(OC)ccc32)c1 | 42900 |  |  |  |  |
| C=CCN1CC[C@]23CCCC[C@H]2[C@H]1Cc1ccc(O)cc13 [LEVALLORPHAN] |  |  |  |  | 12000 |
| COC1CCC2C(Cc3cccc(O)c3)=NCCC2C1 (stereo unspecified) | 43100 | 2320 | > 10000 | > 10000 |  |
| CN1CC[C@@]23CCCC[C@@H]2[C@@H]1Cc1ccc(O)cc13 [DEXTRORPHAN] |  |  |  |  | 20000 |
| CCO[C@@]12CCC(=O)[C@]3(C)Oc4c(O)ccc5c4[C@@]31CCN(C)[C@@H]2C5 |  | 0.1 | 4.8 | 10.2 |  |
